The results in this text go back to PMC9198986, “Controlling Doxorubicin Release from a Peptide Hydrogel through Fine-Tuning of Drug–Peptide Fiber Interactions” (Biomacromolecules, 2022).

Where no end group is shown, it is not given here.

A short description of series [1]: Gels biodegradability: fraction of intact peptide after incubation in 50% FBS (RP-HPLC). The series is classed as in vitro ADME, bovine. Particulars: 14 mM hydrogel, 37 °C; for susceptibility to enzymatic degradation, rank: up to 72 h; for level of degradation up to 12 h: first 12 h. How it is done: Peptide hydrogels (14 mM) were incubated in either PBS or 50% FBS ddH2O solution at 37 °C. At selected time points (2, 5, 10, 24, 48, and 72 h), the gels were disassembled by dilution to 1 mg mL^–1 in a 1% trifluoroacetic acid (TFA) water/acetonitrile (50/50 v/v) solution. Reversed phase-high-performance liquid chromatography (RP-HPLC) analyses were conducted at 25 °C on an Ultimate 3000 HPLC system (Dionex) equipped with a variable wavelength UV detector (wavelength used 210 nm) and a gradient pump. Separation was performed on a Phenomenex Jupiter 4μ Proteo column 90A° (250 × 4.66 mm) fitted with a 300 Guard Cartridge (4.3 × 10 mm). A flow rate of 1 mL min^–1 was used for all separations. The mobile phase consisted of a mixture of water: TFA(0.1%)—solvent A and acetonitrile/TFA(0.1%)—solvent B. An elution gradient of 90% solvent A/10% solvent B to 30% solvent A/70% solvent B over 45 min was used. 100 μL of sample aliquots was injected into the column using an ACC-3000 autosampler. Data were analyzed using Chromoleon 6.80 software. The peptide stability was expressed as a fraction of intact peptide present in the sample at sampling time t using the following equation [drawing 1] 1 where AUCPBS (t) and AUCFBS (t) are the intact peptide peak areas under the HPLC curves obtained at the sampling time t for hydrogels incubated with PBS and 50% FBS ddH2O solutions, respectively.
We also examined the susceptibility of these peptide hydrogels to enzymatic degradation by incubating them in a 50 FBS/50 PBS media mixture. At the selected time points, the samples were homogenized (release buffer + remaining hydrogel), and the fraction of intact, that is, nondegraded peptide was estimated via HPLC. FBS contains a wide array of proteases and other enzymes that will degrade proteins and peptides. […] Dox release was also measured using a 50 FBS/50 PBS mixture as release media. […] From 24 h onward, similar release profiles were obtained in the presence and absence of FBS, probably due to the fact that by then most of the Dox has been released, and the supernatant release media is reaching saturation (Figure S5).

In the next series the test system is 3T3 murine fibroblasts. Nature of the series: 3T3 fibroblast viability under hydrogel inserts (PicoGreen dsDNA). Particulars: non-loaded 14 mM hydrogel in insert above 3T3 cells; for cell viability with non-loaded hydrogels: over 48 h, PicoGreen dsDNA. The series is classed as cell-based, mouse. The protocol:
3T3 murine fibroblasts were seeded (1.5 × 10^4 cells cm^–2) in 12-well cell culture plates and 1.5 mL of DMEM supplemented with 10% FBS added per well. 400 μl of hydrogels (14 mM) with and without Dox (240 μM) were plated within 12-well cell culture plate inserts (ThinCert, Greiner Bio-One, pore size 1 μm) and placed above the cells. At selected time points, cells were retrieved from the cell culture wells, and the amount of double-stranded DNA (dsDNA) content was measured using PicoGreen dsDNA assay (Life Technologies, Carlsbad, CA, USA) following the manufacturer’s protocol.
Finally, we confirmed that the Dox released from the hydrogels was still active by investigating its effect on 3T3 mouse fibroblasts. This was achieved by culturing the fibroblasts in 2D in cell culture wells and placing the hydrogels (loaded and non-loaded with Dox) in inserts equipped with porous membranes above the cells (see schematics in Figure 6). This experimental setup was used to avoid a direct contact between the hydrogels and the cells but still allow the drug to diffuse from the hydrogels into the cell culture media. Dox is known to affect cell proliferation and viability via DNA intercalation and inhibition of topoisomerase II.[24],[25] Therefore, at the selected time points, the effect of Dox on fibroblasts viability was evaluated by measuring the total amount of double-stranded DNA (dsDNA), which is directly proportional to the number of live cells present.

For the sequence FEFKFEFKK [F8K], in series [1] (RP-HPLC), the “level of degradation” value is reported as “minimal degradation” and the “susceptibility to enzymatic degradation, rank” value was “least susceptible”. In addition, in the series on 3T3 murine fibroblasts, the “cell viability with non-loaded hydrogels” value is “good cell viabilities”.

For the sequence FEFEFKFE [FE], the “hydrogel degradation at later times” value in series [1] (>24 h, RP-HPLC) is on record as “more substantial”. The “level of degradation up to 12 h” value in series [1] (RP-HPLC) is given as “low levels of degradation”. In addition, the “cell viability with non-loaded hydrogels” value in the series with 3T3 murine fibroblasts is listed as “good cell viabilities”.

With KFEFKFEFKK [KF8K], in series [1] (after 5 h, RP-HPLC UV 210 nm, intact peak area vs PBS incubation), the peptide degraded is recorded as ~40%. In addition, the “susceptibility to enzymatic degradation, rank” value in series [1] (RP-HPLC) is listed as “most susceptible”. Also, in the series with 3T3 murine fibroblasts, the “cell viability with non-loaded hydrogels” value is listed as “good cell viabilities”.

For FEFKFEFK [F8], the “level of degradation” value in series [1] (RP-HPLC) is reported as “minimal degradation”. For the same sequence, the “cell viability with non-loaded hydrogels” value with 3T3 murine fibroblasts was “good cell viabilities”.

Consider FKFEFKFK [FK], for which, in series [1] (RP-HPLC), the “level of degradation up to 12 h” value is “low level of degradation”. In the series with 3T3 murine fibroblasts (DMEM 10% FBS, 48 h, PicoGreen), the “dsDNA detected after 48 h as % of the amount at t = 0” value was determined as 40%. Moreover, the “cell viability with non-loaded hydrogels” value with 3T3 murine fibroblasts is “some level of cytotoxicity”.
